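96-well plates; 48 h exposure; 5 concentrations. Endpoints by linear interpolation between flanking doses. Not reached: highest tested concentration assigned. The concentration for 50% growth inhibition is given as GI50.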 Calls of active or inactive are those of the source. No stated cut-off is given here; in the data, active = GI50 up to about 1.1 µM and inactive = higher.
Experiments:
Assay in all cases: DTP human tumour cell line panel, 48 h
A549 = tested on: A549
CCRF-CEM = tested on: CCRF-CEM
HOP-92 = tested on: HOP-92
KM12 = tested on: KM12
M14 = tested on: M14
Malme-3M = tested on: Malme-3M
NCI-H226 = tested on: NCI-H226
NCI-H522 = tested on: NCI-H522
OVCAR-5 = tested on: OVCAR-5
SF-539 = tested on: SF-539
SK-MEL-28 = tested on: SK-MEL-28
SK-OV-3 = tested on: SK-OV-3
SNB-75 = tested on: SNB-75
SW-620 = tested on: SW-620
U-251 = tested on: U-251
UACC-257 = tested on: UACC-257
RXF 393 = tested on: RXF 393

Measured: GI50

COc1cc(/C=C\c2ccc(OC(C)=O)cc2)cc(OC)c1OC
inactive: A549 6.62 µM | CCRF-CEM 4.06 µM | HOP-92 20 µM | KM12 2.21 µM | M14 4.49 µM | Malme-3M 2.06 µM | NCI-H226 33.7 µM | NCI-H522 2.92 µM | OVCAR-5 62.7 µM | SF-539 2.26 µM | SK-MEL-28 1.44 µM | SK-OV-3 > 100 µM | SNB-75 2.2 µM | SW-620 3.36 µM | U-251 2.37 µM | UACC-257 2.48 µM

Cc1nc2c(n1CC(C)C)C(=O)c1ccccc1C2=O
inactive: A549 32.9 µM | CCRF-CEM 38.2 µM | HOP-92 10.4 µM | KM12 37.9 µM | M14 61.7 µM | Malme-3M 20.6 µM | NCI-H226 > 100 µM | NCI-H522 26.5 µM | RXF 393 35.2 µM | SF-539 24.8 µM | SK-MEL-28 67.9 µM | SK-OV-3 62.4 µM | SNB-75 42.8 µM | SW-620 41.1 µM | U-251 38.6 µM | UACC-257 17.7 µM

COC1OC(C)C(OC(=O)C(C)(C)C)C(C)(O)C1O (stereo not given)
inactive: A549 > 100 µM | CCRF-CEM > 100 µM | HOP-92 > 100 µM | KM12 > 100 µM | M14 > 100 µM | Malme-3M > 100 µM | NCI-H226 > 10 µM | NCI-H522 > 100 µM | OVCAR-5 > 100 µM | RXF 393 > 100 µM | SF-539 > 100 µM | SK-MEL-28 > 100 µM | SW-620 > 100 µM | U-251 > 100 µM | UACC-257 > 100 µM

COC(=O)C(CCCC1(c2ccccc2)OCCO1)C(C)=O (stereo not given)
inactive: A549 > 100 µM | CCRF-CEM > 100 µM | KM12 > 100 µM | M14 > 100 µM | Malme-3M > 100 µM | NCI-H226 40.9 µM | NCI-H522 64 µM | OVCAR-5 > 100 µM | RXF 393 > 100 µM | SF-539 > 100 µM | SK-MEL-28 > 100 µM | SK-OV-3 > 100 µM | SNB-75 30.2 µM | SW-620 > 100 µM | U-251 > 100 µM | UACC-257 90.2 µM

Cc1c(C(=O)NCCO)[n+]([O-])c2cc(Cl)ccc2[n+]1[O-]
inactive: A549 > 100 µM | CCRF-CEM > 100 µM | HOP-92 > 100 µM | KM12 > 100 µM | M14 > 100 µM | Malme-3M > 100 µM | OVCAR-5 > 100 µM | RXF 393 > 100 µM | SF-539 > 100 µM | SK-MEL-28 > 100 µM | SK-OV-3 86.9 µM | SNB-75 48.5 µM | SW-620 > 100 µM | U-251 > 100 µM | UACC-257 > 100 µM

CCOC(=O)NC(=O)c1cn(CCN2CCN(C(=O)NCCCCCCNC(=O)N3CCN(CCn4cc(C(=O)NC(=O)OCC)c(=O)[nH]c4=O)CC3)CC2)c(=O)[nH]c1=O
inactive: A549 > 100 µM | HOP-92 > 100 µM | KM12 > 100 µM | M14 > 100 µM | Malme-3M > 100 µM | NCI-H522 > 100 µM | OVCAR-5 > 100 µM | RXF 393 > 100 µM | SF-539 > 100 µM | SK-MEL-28 > 100 µM | SK-OV-3 > 100 µM | SNB-75 > 100 µM | SW-620 > 100 µM | U-251 > 100 µM | UACC-257 > 100 µM

CC1=NN=C(NCCN(C)C)C/C1=C/c1ccccc1Cl
inactive: A549 > 100 µM | KM12 > 100 µM | M14 39.4 µM | Malme-3M 27.6 µM | OVCAR-5 79.1 µM | RXF 393 95.1 µM | SF-539 > 100 µM | SK-MEL-28 59.2 µM | SK-OV-3 > 100 µM | SNB-75 20 µM | SW-620 > 100 µM | U-251 > 100 µM | UACC-257 23.5 µM

CCOC(=O)c1ncn2c1[nH]c(=O)c1ccccc12
inactive: A549 > 100 µM | CCRF-CEM > 100 µM | KM12 > 100 µM | M14 > 100 µM | Malme-3M > 100 µM | NCI-H226 > 100 µM | NCI-H522 > 100 µM | OVCAR-5 > 100 µM | RXF 393 > 100 µM | SF-539 > 100 µM | SK-MEL-28 > 100 µM | SNB-75 11.9 µM | SW-620 > 100 µM | U-251 > 100 µM

CC1=C(C(=O)Nc2ccccc2)C(c2ccc([N+](=O)[O-])cc2)C(C(=O)Nc2ccccc2)=C(C)N1
inactive: A549 34 µM | CCRF-CEM 10.3 µM | HOP-92 17.9 µM | KM12 15.8 µM | M14 18.1 µM | Malme-3M 34.2 µM | NCI-H226 59.6 µM | NCI-H522 18.3 µM | OVCAR-5 40.9 µM | RXF 393 17.6 µM | SF-539 20.7 µM | SK-MEL-28 31.5 µM | SNB-75 26.6 µM | SW-620 15.2 µM | U-251 17.4 µM | UACC-257 18.5 µM

CC(C(=O)n1c2ccccc2c2ccccc21)N(c1ccccc1)c1ccccc1 (stereo not given)
inactive: A549 20.4 µM | CCRF-CEM 1.64 µM | M14 16.7 µM | Malme-3M 15.1 µM | NCI-H226 23.7 µM | NCI-H522 2.75 µM | OVCAR-5 18.4 µM | RXF 393 14.6 µM | SF-539 19.2 µM | SK-MEL-28 19.1 µM | SK-OV-3 18.7 µM | SNB-75 20.2 µM | SW-620 19.8 µM | U-251 17.8 µM | UACC-257 17.9 µM

C=CCOC(C)n1c(C)cc(=O)n(C(C)OCC=C)c1=O (stereo not given)
inactive: A549 > 100 µM | CCRF-CEM > 100 µM | HOP-92 72.1 µM | M14 > 100 µM | Malme-3M > 100 µM | NCI-H226 > 100 µM | NCI-H522 > 100 µM | RXF 393 > 100 µM | SF-539 > 100 µM | SK-MEL-28 > 100 µM | SK-OV-3 > 100 µM | SNB-75 > 100 µM | SW-620 > 100 µM | U-251 > 100 µM | UACC-257 > 100 µM

Nc1nc(N)c(N=O)c(Nc2ccc(Br)cc2)n1
inactive: A549 41.9 µM | CCRF-CEM 18.2 µM | HOP-92 15.4 µM | KM12 33.8 µM | M14 16.2 µM | Malme-3M 13.3 µM | NCI-H226 32.2 µM | NCI-H522 17.9 µM | OVCAR-5 31.2 µM | SF-539 16.9 µM | SK-MEL-28 16.6 µM | SK-OV-3 32.4 µM | SNB-75 10.4 µM | SW-620 33.5 µM | U-251 15.9 µM | UACC-257 15.6 µM

CS/C(=N\C(=S)Nc1ccccc1)Nc1ccccc1
inactive: A549 16.5 µM | KM12 25.6 µM | M14 21.4 µM | Malme-3M 15.2 µM | NCI-H226 18.5 µM | NCI-H522 14.6 µM | OVCAR-5 23.6 µM | RXF 393 15.2 µM | SF-539 > 10 µM | SK-MEL-28 15 µM | SK-OV-3 27 µM | SNB-75 16.3 µM | SW-620 23.1 µM | U-251 19.8 µM | UACC-257 > 10 µM

Cc1cc2c(cc1C)[n+]([O-])c(-c1c(Cl)cccc1Cl)c(N)[n+]2[O-]
inactive: A549 30.1 µM | HOP-92 > 100 µM | KM12 37.2 µM | M14 33 µM | Malme-3M 31.1 µM | NCI-H226 23.9 µM | NCI-H522 9.27 µM | OVCAR-5 > 100 µM | SF-539 27.9 µM | SK-MEL-28 28.2 µM | SK-OV-3 66.4 µM | SNB-75 > 100 µM | SW-620 35.1 µM | U-251 33.3 µM | UACC-257 24.6 µM

O=C1OC(=O)C2C3CCC(O3)C12 (stereo not given)
inactive: A549 > 100 µM | CCRF-CEM > 100 µM | HOP-92 > 100 µM | KM12 > 100 µM | M14 > 100 µM | Malme-3M > 100 µM | NCI-H226 > 100 µM | OVCAR-5 > 100 µM | RXF 393 > 100 µM | SF-539 > 100 µM | SK-MEL-28 > 100 µM | SK-OV-3 > 100 µM | SW-620 > 100 µM | U-251 > 100 µM | UACC-257 > 100 µM

O=C(c1ccc(Cl)cc1)c1ccc(OCC(=O)N2CCN(c3ccccc3)CC2)cc1
inactive: A549 > 100 µM | CCRF-CEM > 100 µM | HOP-92 > 100 µM | KM12 > 100 µM | M14 > 100 µM | Malme-3M > 100 µM | NCI-H226 > 100 µM | OVCAR-5 > 100 µM | RXF 393 > 100 µM | SF-539 > 100 µM | SK-MEL-28 > 100 µM | SK-OV-3 > 100 µM | SNB-75 > 100 µM | SW-620 > 100 µM | U-251 > 100 µM | UACC-257 61 µM

O=C1OC(CC(=O)c2ccccc2Cl)C(Cl)=C1Cl (stereo not given)
inactive: A549 > 100 µM | CCRF-CEM 48.3 µM | HOP-92 > 100 µM | KM12 > 100 µM | M14 > 100 µM | Malme-3M > 100 µM | NCI-H226 > 100 µM | NCI-H522 > 100 µM | OVCAR-5 > 100 µM | RXF 393 > 100 µM | SF-539 > 100 µM | SK-MEL-28 > 100 µM | SK-OV-3 > 100 µM | SW-620 > 100 µM | U-251 > 100 µM | UACC-257 > 100 µM

COc1ccc(C(=O)C(c2ccc(OC)cc2)C2(O)C(=O)Nc3c(Cl)cc(Cl)cc32)cc1 (stereo not given)
inactive: A549 24.2 µM | CCRF-CEM 15.6 µM | HOP-92 15.3 µM | KM12 17.8 µM | M14 16.9 µM | Malme-3M 15.5 µM | NCI-H226 18.4 µM | NCI-H522 18.2 µM | OVCAR-5 20.1 µM | RXF 393 22.3 µM | SK-MEL-28 22.3 µM | SK-OV-3 50.7 µM | SNB-75 22.9 µM | SW-620 17.6 µM | U-251 33.1 µM | UACC-257 17.3 µM
